Consider 43 compounds from patent US4393228A, “Epoxysuccinic acid derivatives” (Taisho Pharmaceutical Co., Ltd., priority 1977, dated 1983).

In the test the target is T1, papain (Carica papaya, UniProt P00784).
T1 construct: purchased Sigma Chem. Co
T1 sequence (P00784 134-345): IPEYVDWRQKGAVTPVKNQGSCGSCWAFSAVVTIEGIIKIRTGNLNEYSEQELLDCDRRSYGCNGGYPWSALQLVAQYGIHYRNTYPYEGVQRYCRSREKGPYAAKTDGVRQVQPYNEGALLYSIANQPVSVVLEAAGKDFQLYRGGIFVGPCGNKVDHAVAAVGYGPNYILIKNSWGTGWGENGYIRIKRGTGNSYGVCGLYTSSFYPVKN
The experiment in a line: Papain inhibitory activity (milk casein digestion). The format is biochemical. As to conditions: papain 80 μg/ml 0.5 ml, cysteine, pH 6.8, 1% milk casein, 40° C., 10 minutes. The gist of the method: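 Papain (80 μg/ml stock) preincubated 15 min at 40 °C with inhibitor, cysteine/EDTA activator and phosphate buffer pH 6.8. Then 1% milk casein digested 10 min at 40 °C, stopped with trichloroacetic acid and filtered; filtrate absorbance at 280 nm gives percent inhibition versus no-inhibitor control.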
As to `CCCCCCCCCCCCOC(=O)[C@H]1O[C@@H]1C(=O)O` (relative stereo) [EP-145, n-dodecyl potassium epoxysuccinate], the “ID50 (amount of inhibitor for 50% inhibition)” value is given as 0.14 γ.
Take `CCCOC(=O)[C@H]1O[C@@H]1C(=O)NCC(=O)OCc1ccccc1` (relative stereo) [EP-153, N-(3-n-propyloxycarbonyloxirane-2-carbonyl)-glycine benzyl ester]: the “ID50 (amount of inhibitor for 50% inhibition)” value is on record as 17.90 γ.
`CCOC(=O)[C@H]1O[C@@H]1C(=O)NCC(=O)OCc1ccccc1` (relative stereo) [EP-154, N-(3-ethoxycarbonyloxirane-2-carbonyl)-glycine benzyl ester]: the “ID50 (amount of inhibitor for 50% inhibition)” value is 43.90 γ.
In the case of `CCOC(=O)[C@H]1O[C@@H]1C(=O)NCCC(=O)OCc1ccccc1` (relative stereo) [EP-157, N-(3-ethoxycarbonyloxirane-2-carbonyl)-β-alanine benzyl ester], the “ID50 (amount of inhibitor for 50% inhibition)” value is reported as 71.50 γ.
As to `CCOC(=O)CCCNC(=O)[C@@H]1O[C@H]1C(=O)OCc1ccc(Cl)cc1` (relative stereo) [EP-189, N-(3-p-chlorobenzyloxycarbonyloxirane-2-carbonyl)-γ-aminobutylic acid ethyl ester], the “ID50 (amount of inhibitor for 50% inhibition)” value is recorded as 10.58 γ.
`O=C(CNC(=O)[C@@H]1O[C@H]1C(=O)OCCC1CCCCC1)OCc1ccccc1` (relative stereo) [EP-207, N-[3-(2'-cyclohexylethoxy)-carbonyloxirane-2-carbonyl]-glycine benzyl ester]: the “ID50 (amount of inhibitor for 50% inhibition)” value is recorded as 6.52 γ.
Regarding `O=C(CCNC(=O)[C@@H]1O[C@H]1C(=O)OCCCCC1CCCCC1)OCc1ccccc1` (relative stereo) [EP-208, N-[3-(4'-cyclohexylbutoxy)-carbonyloxirane-2-carbonyl]-β-alanine benzyl ester], the “ID50 (amount of inhibitor for 50% inhibition)” value is recorded as 13.12 γ.
For the compound `CCOC(=O)CNC(=O)[C@@H]1O[C@H]1C(=O)OCc1ccc2c(Br)cccc2c1` (relative stereo) [EP-220, N-[3-(5'-bromo-2-naphthylmethoxy)-carbonyloxirane-2-carbonyl]-glycine ethyl ester], the “ID50 (amount of inhibitor for 50% inhibition)” value is 9.86 γ.
The result for `O=C(OC1CCCC(Br)C1)C1OC1C(=O)OC1CCCC(Br)C1` (stereo not drawn) [EP-9, di-3'-cis-bromocyclohexyl epoxysuccinate] reads 2.20 γ.
For `O=C(O)C1OC1C(=O)OC1CCCC(Br)C1` (stereo not drawn) [EP-10, 3'-cis-bromocyclohexyl potassium epoxysuccinate], the “ID50 (amount of inhibitor for 50% inhibition)” value is 0.06 γ.
In the case of `O=C(OC1CC(Cl)CCC1Br)C1OC1C(=O)OC1CC(Cl)CCC1Br` (stereo not drawn) [EP-11, di-2'-cis-bromo-5'-trans-chlorocyclohexyl epoxysuccinate], the “ID50 (amount of inhibitor for 50% inhibition)” value is reported as 2.50 γ.
For `O=C(O)C1OC1C(=O)OC1CC(Cl)CCC1Br` (stereo not drawn) [EP-12, 2'-cis-bromo-5'-trans-chlorocyclohexyl potassium epoxysuccinate] the value was 0.07 γ; for `CC1CCCC(C)C1OC(=O)C1OC1C(=O)OC1C(C)CCCC1C` (stereo not drawn) [EP-13, di-2',6'-trans-dimethylcyclohexyl epoxysuccinate], 2.50 γ.
For `CC1CCCC(C)C1OC(=O)C1OC1C(=O)O` (stereo not drawn) [EP-14, 2',6'-trans-dimethylcyclohexyl potassium epoxysuccinate] the value was 0.10 γ; for `O=C(OC1CCC(Br)C(Cl)C1)C1OC1C(=O)OC1CCC(Br)C(Cl)C1` (stereo not drawn) [EP-21, di-3'-cis-chloro-trans-4'-bromocyclohexyl epoxysuccinate], 2.46 γ; for `O=C(O)C1OC1C(=O)OC1CCC(Br)C(Cl)C1` (stereo not drawn) [EP-22, 3'-cis-chloro-4'-trans-bromocyclohexyl potassium epoxysuccinate], 0.12 γ.
The result for `O=C(OC1CC(Cl)CC(Cl)C1)C1OC1C(=O)OC1CC(Cl)CC(Cl)C1` (stereo not drawn) [EP-23, di-3',5'-trans-dichlorocyclohexyl epoxysuccinate] reads 2.45 γ; that for `O=C(O)C1OC1C(=O)OC1CC(Cl)CC(Cl)C1` (stereo not drawn) [EP-24, 3',5'-trans-dichlorocyclohexyl potassium epoxysuccinate], 0.09 γ; that for `O=C(OC1CCC(Cl)C1)C1OC1C(=O)OC1CCC(Cl)C1` (stereo not drawn) [EP-29, di-3'-cis-chlorocyclopentyl epoxysuccinate], 3.12 γ.
Regarding `O=C(O)C1OC1C(=O)OC1CCC(Cl)C1` (stereo not drawn) [EP-30, 3'-cis-chlorocyclopentyl potassium epoxysuccinate], the “ID50 (amount of inhibitor for 50% inhibition)” value is 0.07 γ.
Consider `CC1CCC(OC(=O)C2OC2C(=O)OC2CCC(C)C2)C1` (stereo not drawn) [EP-31, di-3'-trans-methylcyclopentyl epoxysuccinate], for which the “ID50 (amount of inhibitor for 50% inhibition)” value was 3.25 γ.
Turning to `CC1CCC(OC(=O)C2OC2C(=O)O)C1` (stereo not drawn) [EP-32, 3'-trans-methylcyclopentyl potassium epoxysuccinate], the “ID50 (amount of inhibitor for 50% inhibition)” value is listed as 0.09 γ.
On to `CC(OC(=O)C1OC1C(=O)OC(C)C1CCCC1)C1CCCC1` (stereo not shown) [EP-45, di-1-cyclopentaneethyl epoxysuccinate], for which the “ID50 (amount of inhibitor for 50% inhibition)” value is reported as 0.23 γ.
The result for `CC(OC(=O)C1OC1C(=O)O)C1CCCC1` (stereo not shown) [EP-46, 1-cyclopentaneethyl potassium epoxysuccinate] reads 0.08 γ; that for `CC1(C)C2CCC1(C)C(OC(=O)C1OC1C(=O)OC1CC3CCC1(C)C3(C)C)C2` (stereo not shown) [EP-53, dibornyl epoxysuccinate], 0.45 γ.
For `CC1(C)C2CCC1(C)C(OC(=O)C1OC1C(=O)O)C2` (stereo not shown) [EP-54, bornyl potassium epoxysuccinate] the value was 0.09 γ.
As to `O=C(OC1CC2CCC1C2)C1OC1C(=O)OC1CC2CCC1C2` (stereo not shown) [EP-55, dinorbornyl epoxysuccinate], the “ID50 (amount of inhibitor for 50% inhibition)” value is listed as 0.28 γ.
Turning to `O=C(O)C1OC1C(=O)OC1CC2CCC1C2` (stereo not shown) [EP-56, norbornyl potassium epoxysuccinate], the “ID50 (amount of inhibitor for 50% inhibition)” value was 0.06 γ.
As for `O=C(OC1CC2C=CC1C2)C1OC1C(=O)OC1CC2C=CC1C2` (stereo not shown) [EP-57, dinorbor-5-en-2-yl epoxysuccinate], the “ID50 (amount of inhibitor for 50% inhibition)” value is reported as 0.26 γ.
In the case of `O=C(O)C1OC1C(=O)OC1CC2C=CC1C2` (stereo not shown) [EP-58, norbor-5-en-2-yl potassium epoxysuccinate], the “ID50 (amount of inhibitor for 50% inhibition)” value was 0.07 γ.
For `O=C(OCC1CC=CCC1)C1OC1C(=O)OCC1CC=CCC1` (stereo not shown) [EP-69, di-3-cyclohexenemethyl epoxysuccinate] the value was 0.23 γ; for `O=C(O)C1OC1C(=O)OCC1CC=CCC1` (stereo not shown) [EP-70, 3-cyclohexenemethylpotassium epoxysuccinate], 0.08 γ.
`O=C(OCC1C=CCC1)C1OC1C(=O)OCC1C=CCC1` (stereo not shown) [EP-71, di-2-cyclopentenemethyl epoxysuccinate]: the “ID50 (amount of inhibitor for 50% inhibition)” value is listed as 0.40 γ.
Consider `O=C(O)C1OC1C(=O)OCC1C=CCC1` (stereo not shown) [EP-72, 2-cyclopentenemethyl potassium epoxysuccinate], for which the “ID50 (amount of inhibitor for 50% inhibition)” value is reported as 0.08 γ.
With `CCOC(=O)C1OC1C(=O)N[C@@H](CC(C)C)C(=O)OCC` (stereo partly drawn) [EP-146, N-(3-ethoxycarbonyloxirane-2-carbonyl)-L-leucine ethyl ester], the “ID50 (amount of inhibitor for 50% inhibition)” value is 0.39 γ.
Consider `C=CCOC(=O)C1OC1C(=O)N[C@@H](Cc1ccc(O)cc1)C(=O)OCc1ccccc1` (stereo partly drawn) [EP-147, N-(3-allyloxycarbonyloxirane-2-carbonyl)-L-tyrosine benzyl ester], for which the “ID50 (amount of inhibitor for 50% inhibition)” value is 3.40 γ.
For the compound `Cc1cccc(COC(=O)C2OC2C(=O)N[C@@H](Cc2ccc(O)cc2)C(=O)OCc2ccccc2)c1` (stereo partly drawn) [EP-148, N-(3-m-methylbenzyloxycarbonyloxirane-2-carbonyl)-L-tyrosine benzyl ester], the “ID50 (amount of inhibitor for 50% inhibition)” value is 0.70 γ.
For the compound `COC(=O)[C@H](CCSC)NC(=O)C1OC1C(=O)OCc1ccc2c(c1)OCO2` (stereo partly drawn) [EP-149, N-(3-piperonyloxycarbonyloxirane-2-carbonyl)-L-methionene methyl ester], the “ID50 (amount of inhibitor for 50% inhibition)” value is reported as 0.70 γ.
In the case of `CCOC(=O)C1OC1C(=O)N[C@@H](Cc1ccccc1)C(=O)OCC` (stereo partly drawn) [EP-150, N-(3-ethoxycarbonyloxirane-2-carbonyl)-L-phenylalanine ethyl ester], the “ID50 (amount of inhibitor for 50% inhibition)” value is 3.10 γ.
For `CCOC(=O)C1OC1C(=O)N[C@@H](Cc1c[nH]c2ccccc12)C(=O)OCC` (stereo partly drawn) [EP-151, N-(3-ethoxycarbonyloxirane-2-carbonyl)-L-tryptophan ethyl ester] the value was 7.20 γ.
The result for `CCOC(=O)C1OC1C(=O)N1CCC[C@H]1C(=O)OCc1ccccc1` (stereo partly drawn) [EP-152, N-(3-ethoxycarbonyloxirane-2-carbonyl)-L-proline benzyl ester] reads 48.20 γ; that for `CCOC(=O)C1OC1C(=O)N[C@@H](CCSC)C(=O)OC` (stereo partly drawn) [EP-155, N-(3-ethoxycarbonyloxirane-2-carbonyl)-L-methionine methyl ester], 9.20 γ.
With `CCOC(=O)C1OC1C(=O)N[C@@H](CCC(=O)OCc1ccccc1)C(=O)OCc1ccccc1` (stereo partly drawn) [EP-156, N-(3-ethoxycarbonyloxirane-2-carbonyl)-L-glutamic acid dibenzyl ester], the “ID50 (amount of inhibitor for 50% inhibition)” value was 13.80 γ.
